Common to all, as to format: functional
Assay [1] concerns the target T1, Sentrin-specific protease 8 (Homo sapiens, UniProt Q96LD8).
T1 sequence (Q96LD8 whole entry): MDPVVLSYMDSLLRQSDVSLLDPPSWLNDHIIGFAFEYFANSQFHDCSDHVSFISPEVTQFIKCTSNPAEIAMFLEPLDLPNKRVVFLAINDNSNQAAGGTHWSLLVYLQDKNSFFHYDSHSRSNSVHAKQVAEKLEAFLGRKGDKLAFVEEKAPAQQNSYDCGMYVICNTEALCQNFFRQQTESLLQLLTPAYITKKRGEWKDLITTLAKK
The experiment in a line: SENP8 protease inhibitors, SAR follow-up, biochemical, luminescence (AID 504501).

The target of assay [2] is T2, Sentrin-specific protease 6 (Homo sapiens, UniProt Q9GZR1).
T2 sequence (Q9GZR1 whole entry): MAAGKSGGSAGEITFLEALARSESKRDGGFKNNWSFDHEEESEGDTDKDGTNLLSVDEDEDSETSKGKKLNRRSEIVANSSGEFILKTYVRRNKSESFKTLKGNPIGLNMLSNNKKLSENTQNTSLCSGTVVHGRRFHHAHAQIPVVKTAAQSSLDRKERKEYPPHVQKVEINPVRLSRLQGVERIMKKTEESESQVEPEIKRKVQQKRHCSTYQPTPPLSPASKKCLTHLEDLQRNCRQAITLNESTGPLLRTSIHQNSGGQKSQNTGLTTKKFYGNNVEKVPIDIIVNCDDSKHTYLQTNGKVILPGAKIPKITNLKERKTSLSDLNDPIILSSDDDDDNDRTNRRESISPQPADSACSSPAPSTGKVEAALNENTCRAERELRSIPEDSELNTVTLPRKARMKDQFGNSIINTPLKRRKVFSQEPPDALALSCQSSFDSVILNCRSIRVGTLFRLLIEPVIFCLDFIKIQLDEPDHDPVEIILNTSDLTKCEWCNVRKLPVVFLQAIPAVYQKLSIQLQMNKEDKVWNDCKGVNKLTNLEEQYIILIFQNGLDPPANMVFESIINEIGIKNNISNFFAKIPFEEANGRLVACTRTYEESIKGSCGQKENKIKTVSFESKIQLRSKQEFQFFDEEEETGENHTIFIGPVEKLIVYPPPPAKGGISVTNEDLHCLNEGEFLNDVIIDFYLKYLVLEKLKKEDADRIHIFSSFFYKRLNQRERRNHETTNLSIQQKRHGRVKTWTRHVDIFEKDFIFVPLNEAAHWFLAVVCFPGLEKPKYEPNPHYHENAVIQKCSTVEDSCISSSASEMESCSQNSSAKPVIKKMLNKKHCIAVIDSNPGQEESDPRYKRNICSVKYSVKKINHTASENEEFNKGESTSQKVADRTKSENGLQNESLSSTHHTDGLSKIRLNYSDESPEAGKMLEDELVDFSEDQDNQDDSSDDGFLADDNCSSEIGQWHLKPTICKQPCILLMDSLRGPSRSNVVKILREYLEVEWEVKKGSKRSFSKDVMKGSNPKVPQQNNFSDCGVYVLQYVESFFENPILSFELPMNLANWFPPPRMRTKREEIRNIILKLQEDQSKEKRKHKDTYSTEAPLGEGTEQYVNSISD
The assay is described as follows: SAR Analysis of small molecule inhibitors of Sentrin-specific protease 6 (SENP6) using a Luminescent assay. [Related pubchem assays (depositor defined):AID2582, AID2599].

In the next assay the target is T3, Caspase-3 (Homo sapiens, UniProt P42574).
T3 sequence (P42574 whole entry): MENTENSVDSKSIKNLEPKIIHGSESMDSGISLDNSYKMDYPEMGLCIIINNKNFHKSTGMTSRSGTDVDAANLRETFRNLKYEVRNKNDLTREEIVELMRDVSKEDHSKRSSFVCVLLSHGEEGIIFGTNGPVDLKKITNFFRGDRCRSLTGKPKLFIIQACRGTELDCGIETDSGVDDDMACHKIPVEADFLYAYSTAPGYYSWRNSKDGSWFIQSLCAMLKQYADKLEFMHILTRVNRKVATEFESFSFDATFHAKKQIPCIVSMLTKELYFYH
The assay is described as follows: SAR Analysis of small molecule inhibitors of Sentrin-specific proteases (SENPs) using a Caspase-3 Selectivity assay. [Related pubchem assays (depositor defined):AID2540, AID2599, AID434973, AID489001].

The next assay deals with T4, Protein RecA (Mycobacterium tuberculosis, UniProt P9WHJ3).
T4 sequence (P9WHJ3 whole entry): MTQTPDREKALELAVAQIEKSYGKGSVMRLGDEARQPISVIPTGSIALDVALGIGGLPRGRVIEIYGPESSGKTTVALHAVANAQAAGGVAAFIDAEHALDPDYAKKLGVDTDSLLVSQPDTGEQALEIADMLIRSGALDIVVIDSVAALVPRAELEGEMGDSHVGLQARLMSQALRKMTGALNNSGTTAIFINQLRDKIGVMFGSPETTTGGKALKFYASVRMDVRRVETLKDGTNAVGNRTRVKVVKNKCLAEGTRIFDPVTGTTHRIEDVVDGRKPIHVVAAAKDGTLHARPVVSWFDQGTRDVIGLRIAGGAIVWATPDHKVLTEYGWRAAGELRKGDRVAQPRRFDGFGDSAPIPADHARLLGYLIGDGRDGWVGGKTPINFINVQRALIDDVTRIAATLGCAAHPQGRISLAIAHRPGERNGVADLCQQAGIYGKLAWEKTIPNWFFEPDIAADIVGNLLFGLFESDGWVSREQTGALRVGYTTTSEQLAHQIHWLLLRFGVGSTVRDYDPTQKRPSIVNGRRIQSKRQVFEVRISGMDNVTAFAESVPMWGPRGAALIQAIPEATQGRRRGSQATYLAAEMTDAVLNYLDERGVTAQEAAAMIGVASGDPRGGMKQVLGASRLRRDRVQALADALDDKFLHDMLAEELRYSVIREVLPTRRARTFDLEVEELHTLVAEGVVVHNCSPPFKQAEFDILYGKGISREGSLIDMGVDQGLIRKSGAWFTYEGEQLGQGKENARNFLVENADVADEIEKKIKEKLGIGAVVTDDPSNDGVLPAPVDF
The experiment in a line: Fluorescence Cell-Free Homogeneous Dose Retest to Identify Inhibitors of RecA-Intein Splicing Activity. [Related pubchem assays (depositor defined):AID2097, AID2223, AID489010, AID492950].

SMILES strings stand for the structures. Activity calls are given as the source filed them. Rule as the data show it, for most assays here: actives have a measured IC50 and inactives only a lower limit.

As to `N#Cc1c(NC(=O)CSc2nc[nH]n2)sc2c1CCCCC2`, the IC50 was 12.7 µM (active) in assay [1], 8.05 µM (active) in assay [2] and 40.4 µM (active) at Caspase-3.

For `COc1ccc(C(N)c2nccc3cc(OC)c(OC)cc23)cc1OC` (configuration not stated), the IC50 (in assay [1]; in assay [2]; at Caspase-3) was > 99 µM (inactive) each time. Also, the EC50 at Protein RecA was > 380 µM (inactive).

A word on the IC50: it is the concentration needed to halve the response being measured. A word on the EC50: it is the concentration giving half of the maximal effect.

These data come from ChEMBL document CHEMBL1201862, “PubChem BioAssay data set” (2004).
